Laboratory results from US10696693B2, “Fused imidazole derivatives as TGF-beta inhibitors” (Rigel Pharmaceuticals, Inc., priority 2014, dated 2020).

Assays:
GDF8 = assay: AlphaScreen SureFire p-SMAD3 (Ser423/425) assay, GDF8-stimulated cells; assay type: cell-based; conditions: Mus musculus, MPC-11; p-SMAD3 (Ser423/425) AlphaScreen in cell lysate; MPC11; GDF8 stimulation; read-out: GDF8: inhibition of GDF8 signaling, GDF pSMAD (MPC11)
In short: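 A SureFire AlphaScreen assay measured phosphorylation of endogenous SMAD-3 at Ser423/425 in cell lysates. Cells were treated with three-fold serially diluted compounds in DMSO for about 10 minutes, then stimulated with GDF8. After medium removal, cells were lysed in 1× Lysis Buffer (about 25 μL) with gentle shaking for 5-10 minutes.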

TGF-β = assay: AlphaScreen SureFire p-SMAD3 (Ser423/425) assay, TGF-β-stimulated cells; assay type: cell-based; conditions: Mus musculus; p-SMAD3 (Ser423/425) AlphaScreen in cell lysate; MPC-11; TGF-β stimulation; read-out: TGF-β: inhibition of TGF-β signaling, TGF-β pSMAD (MPC-11)
In short: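 The p-SMAD-3 (Ser423/425) SureFire assay measured phosphorylation of endogenous SMAD-3 in cell lysates. Cells were plated overnight in collagen-coated plates, exposed to three-fold serially diluted compounds for about 10 minutes, then stimulated with TGFβ. Lysates (5 μL) received acceptor bead mix for 2 hours, then donor beads for 1½ hours before AlphaScreen reading.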

| IC50 (GDF8) [nM] | IC50 (TGF-β) [nM] | Structure (SMILES) |
| --- | --- | --- |
| < 50 | 50 to 100 | c1ccc(-c2nc3n(c2-c2ccc4ncccc4c2)CCC3)nc1 [Compound 369, 6-(2-(pyridin-2-yl)-6,7-dihydro-5H-pyrrolo[1,2-a]imidazol-3-yl)quinoline] |
| < 50 | < 50 | c1ccc(-c2nc3n(c2-c2ccc4nccn4c2)CCC3)nc1 [Compound 370, 6-(2-(pyridin-2-yl)-6,7-dihydro-5H-pyrrolo[1,2-a]imidazol-3-yl)imidazo[1,2-a]pyridine] |
